Where no end group is shown, it is not given here.
How the values were obtained:
HdhQ111 cells = assay: Cell viability (cell rescue) of serum-starved HdhQ111 cells; format: cell-based, mouse; conditions: 3 μM with respect to peptide, once a day for 3 days; compared to the vehicle control
Experimental: FIG. 3A: Cell viability of HV3-TAT peptide and PLPs. Compounds treated to the HdhQ111 cells once a day for 3 days. Concentration was 3 μM with respect to peptide. FIG. 3B: VCP binding assay results for HV3-TAT, P1, P2, and P4.
Cell Viability Methods: In vitro assays were carried out to examine the bioactivity of the PLPs, P1, P2, P3, and P4 and to compare against the known, active HV3-TAT. […] HdhQ111 cells were immortalized from knock-in mice carrying 111 CAG repeats in the mouse Htt gene.
To verify that the PLPs retain bioactivity after being exposed to enzymes or serum treatments, the viability of HD mouse mutant striatal HdhQ111 cells was assessed following treatment with HV3-TAT and P1. […] Cells were maintained at 33° C. and 5% CO2 with a relative humidity of 95%. HdQ111 cells were plated in 96-well plates at a density of 5000 per well and then left to attach for 24 h. Cells were treated with HV3-TAT or PLPs at 3 μM with respect to peptide once a day, for 3 days. The medium was replaced every day. After 72 h, cells were washed 3 times with PBS buffer. At this point, 20 μL of CTB reagent in 80 uL of medium was added, and the cells incubated for 3 hours at 37° C. Fluorescence was measured at 590 nm with excitation at 560 nm using a Perkin Elmer EnSpire plate reader. The average background fluorescence of CTB in media without cells was subtracted from the average fluorescence readings of the experimental wells. Viability was calculated as the average background-subtracted signal in a well compared to that of a negative control well (treatment with vehicle or media). Three replicates were performed for each independent sample. 10% DMSO was used as a positive control and untreated cells in complete medium as a negative control. Viability is reported as a percentage of untreated cells.

R6/2 mice = assay: In vivo efficacy in R6/2 Huntington's disease mice, behavioral analysis, body weight, survival; design: species or system mouse; conditions: for open field horizontal activity / open field total distance / open field vertical activity: 13 weeks; for survival: over the saline control; for average percent of body weight gain: week 13
Description: FIG. 31A-31F: For each of FIG. 31A-31F, data is shown reflecting the results of 3 separate studies (i.e., “Batch 1+2+3”) conducted under identical conditions; “veh” refers to the vehicle saline control. For each of FIG. 31A-31C at week 6, WT: n=15; WT+P1: n=15; R62 veh: n=22; R62+HV3-TAT: n=32; and R62+P1: n=16. For each of FIG. 31D-31F at week 6, WT: n=15; WT+P1: n=15; R62 veh: n=17; R62+HV3-TAT: n=30; and R62+P1: n=13. FIG. 31A depicts the average percent of body weight gain for mice subjected to each treatment. From top to bottom, the week 13 data points correspond to: WT+P1 (˜43%); WT (˜39%); R62+P1 (˜1%); R62+HV3-TAT (˜ […]); and R62 (˜-9%). FIG. 31B depicts the survival rate for each treatment group over time. 100% survival rate for WT veh and WT+P1. R62+P1 as compared to R62 veh: p-value=0.0454; R62+HV3-TAT as compared to R62 veh: p-value=0.0201. FIG. 31C depicts the average hindlimb clasping score for each treatment group at weeks 11, 12, and 13. For each week: R62 mice treated with vehicle (left), R62 treated with HV3-TAT (middle), and R62 treated with P1 (right). p-values in week 11: 0.0145 (top—R62 veh as compared to R62+P1), 0.0432 (middle—R62 veh as compared to R62+HV3-TAT), and 0.6051 (bottom—R62+HV3-TAT as compared to R62+P1); week 12: 0.0037 (top—R62 veh as compared to R62+P1), 0.0263 (middle—R62 veh as compared to R62+HV3-TAT), and 0.3957 (bottom—R62+HV3-TAT as compared to R62+P1); week 13: 0.0031 (top—R62 veh as compared to R62+P1), 0.0177 (middle—R62 veh as compared to R62+HV3-TAT), and 0.4938 (bottom—R62+HV3-TAT as compared to R62+P1). FIG. 31D depicts results from the open field tests representing the total distance traveled at final data collection. p-value for: WT veh as compared to R62 veh: <0.0001; WT+P1 as compared to R62 veh: <0.0001; R62 veh as compared to R62+HV3-TAT: 0.0021; R62 veh as compared to R62+P1: <0.0001; R62+HV3-TAT as compared to R62+P1: 0.1486. FIG. 31E depicts results from the horizontal activity tests. p-value for: WT veh as compared to R62 veh: <0.0001; WT+P1 as compared to R62 veh: <0.0001; R62 veh as compared to R62+HV3-TAT: 0.0262; R62 veh as compared to R62+P1: <0.0001; R62+HV3-TAT as compared to R62+P1: 0.0083. FIG. 31F depicts results from the vertical activity tests. P-value for: WT veh as compared to R62 veh: 0.0004; WT+P1 as compared to R62 veh: <0.0001; R62 veh as compared to R62+HV3-TAT: 0.2879; R62 veh as compared to R62+P1: 0.0375; R62+HV3-TAT as compared to R62+P1: 0.6222.
In vivo Efficacy Methods—Behavioral Analysis: All experiments in animals were conducted in accordance with protocols approved by the Institutional Animal Care and Use Committee of Northwestern University and were performed based on the National Institutes of Health Guide for the Care and Use of Laboratory Animals. HV3-TAT at its operating dose, saline (negative control), and P1 at a dose of […] (3 mg/kg/day with respect to peptide) were administered to Huntington's phenotype R6/2 (sometimes referred to herein as R62) mice and WT mice via Alzet osmotic pump from 6 to 13 weeks of age. The accepted HD phenotype is a decrease in motor coordination, general motility and body weight in male mice as they age from 5 to 13 weeks. A key phenotype of R6/2 mice is hindlimb clasping. Accordingly, hindlimb clasping was assessed with the tail suspension test weekly from the ages 7 to 13 weeks in R6/2 mice and WT littermates. Mice were suspended by the tail for 60 sec and the latency for the hindlimbs or all four paws to clasp was recorded using the following score system: clasping over 10 sec, score 3; 5-10 sec, score 2; 0-5 sec, score 1; 0 sec, score 0. The body weight and survival rate of HD mice and WT littermates were also recorded throughout the study period. For open field motor activity, gross locomotor activity was assessed in R6/2 mice and age-matched WT littermates at the ages of 13 weeks. […]

Substance | cell viability (HdhQ111 cells) | open field horizontal activity (R6/2 mice) | open field total distance (R6/2 mice) | open field vertical activity (R6/2 mice) | survival (R6/2 mice) | average percent of body weight gain (R6/2 mice) [%] | hindlimb clasping (R6/2 mice; tail suspension test, weekly)
P1: PLP homopolymer having peptide side chains of SEQ ID: 1 (HVLVMSATRR), made by ROMP of norbornene peptide monomer M1 (also: side chains of polynorbornene homopolymer (PLP, ROMP of norbornene peptide monomer)) | higher significance than P3 | improved | improved | improved | significantly extending survival | ~1 | –
peptide sequence HVLVMCAT (HV3) coupled to the cell penetrating, HIV-derived TAT peptide [HV3-TAT, reference compound] | significant increases in cell viability | improved | improved | improved | significantly extending survival | ~4 | longer clasping time than P1 treated mice
